# Measurements as given in EPA's ToxRefDB 2.
# Key:
# [1] = test system: rat; conditions: Combined chronic toxicity/carcinogenicity, sprague dawley, Oral, Feed, dose end: 104 week, group: systemic
# [2] = test system: rat; conditions: Subchronic oral toxicity in rodents, sprague dawley, Feed, dose end: 13 week, group: systemic
# [3] = test system: dog; conditions: Chronic toxicity, beagle, Oral, Capsule, dose end: 52 week, group: systemic
# [4] = test system: dog; conditions: Subchronic oral toxicity in nonrodent, beagle, Capsule, dose end: 93 day, group: systemic
# [5] = test system: mouse; conditions: Carcinogenicity, other, Oral, Feed, dose end: 104 week, group: systemic
# [6] = test system: mouse; conditions: Subchronic oral toxicity in rodents, b6c3f1, Gavage/Intubation, dose end: 13 week, group: systemic
# [7] = test system: rat; conditions: Prenatal developmental toxicity study, sprague dawley, Oral, Gavage/Intubation, dose end: 15 GD
# [8] = test system: rat; conditions: Subchronic dermal toxicity, sprague dawley, Topical, dose end: 13 week, group: systemic, systemic / pathology microscopic / liver / inflammation + systemic / pathology microscopic / liver / necrosis + systemic / in life …
# [9] = test system: rat; conditions: Carcinogenicity, fischer, Oral, Gavage/Intubation, dose end: 103 week, group: systemic
# [10] = test system: mouse; conditions: Sub-acute repeat dose toxicity; b6c3f1; Oral; Gavage/Intubation; dose end: 16 day; group: systemic; systemic / pathology gross / stomach / erosion + systemic / pathology gross / stomach / ulcer + systemic / pathology microscopic / stomach…
# [11] = test system: rat; conditions: Sub-acute repeat dose toxicity; fischer; Oral; Gavage/Intubation; dose end: 16 day; group: systemic; systemic / pathology microscopic / stomach / hyperkeratosis + systemic / pathology microscopic / stomach / hyperplasia + systemic / …
# [12] = test system: mouse; conditions: Carcinogenicity; b6c3f1; Oral; Gavage/Intubation; dose end: 103 week; group: systemic; systemic / pathology microscopic / stomach / acanthosis + systemic / pathology microscopic / stomach / hyperkeratosis + systemic / pathology…
# [13] = test system: rat; conditions: Subchronic oral toxicity in rodents, fischer, Gavage/Intubation, dose end: 13 week, group: systemic
# [14] = test system: rat; conditions: Subchronic oral toxicity in rodents, fischer, Feed, dose end: 13 week, group: systemic
# [15] = test system: rat; conditions: Subchronic oral toxicity in rodents, fischer, Feed, dose end: 13 week, group: systemic; remark: listed apart in the source
# [16] = test system: mouse; conditions: Subchronic oral toxicity in rodents, b6c3f1, Feed, dose end: 13 week, group: systemic
# [17] = test system: rat; conditions: Subchronic oral toxicity in rodents, fischer, Feed, dose end: 13 week, group: systemic, systemic / in life observation / body weight / body weight gain + systemic / pathology gross / urinary bladder / stones
# [18] = test system: mouse; conditions: Carcinogenicity; b6c3f1; Oral; Feed; dose end: 103 week; group: systemic; systemic / pathology gross / urinary bladder / stones + systemic / pathology microscopic / urinary bladder / hyperplasia + systemic / …
# [19] = test system: rat; conditions: Carcinogenicity, fischer, Oral, Feed, dose end: 103 week, group: systemic
# [20] = systemic / in life observation / body weight / body weight + systemic / in life observation / food consumption / food consumption + systemic…
# [21] = systemic / in life observation / body weight / body weight + systemic / in life observation / clinical signs / distended abdomens + systemic…
# [22] = systemic / organ weight / kidney / relative to body weight
# [23] = systemic / clinical chemistry / alkaline phosphatase (alp/alk) / alkaline phosphatase (alp/alk) + systemic / clinical chemistry / …
# [24] = systemic / clinical chemistry / albumin / albumin + systemic / clinical chemistry / alkaline phosphatase (alp/alk) / alkaline phosphatase (…
# [25] = systemic / clinical chemistry / cholesterol / cholesterol
# [26] = systemic / in life observation / body weight / body weight
# [27] = systemic / in life observation / body weight / body weight + systemic / organ weight / kidney / absolute + systemic / organ weight / liver…
# [28] = systemic / organ weight / kidney / relative to body weight + systemic / organ weight / liver / relative to body weight
# [29] = systemic / organ weight / kidney / relative to body weight + systemic / organ weight / liver / relative to body weight + systemic / …
# [30] = group: developmental, systemic / in life observation / body weight / fetal weight
# [31] = group: maternal, systemic / in life observation / body weight / body weight gain + systemic / in life observation / food consumption / food consumption + …
# [32] = systemic / pathology microscopic / stomach / acanthosis + systemic / pathology microscopic / stomach / hyperplasia + systemic / pathology …
# [33] = systemic / pathology microscopic / stomach / acanthosis + systemic / pathology microscopic / stomach / hyperkeratosis
# [34] = systemic / pathology microscopic / stomach / acanthosis + systemic / pathology microscopic / stomach / hyperkeratosis + systemic / in life …
# [35] = systemic / pathology gross / urinary bladder / stones
# [36] = systemic / pathology gross / urinary bladder / stones + systemic / in life observation / body weight / body weight gain + systemic / …
# [37] = systemic / in life observation / body weight / body weight gain + systemic / in life observation / food consumption / food consumption + …
# [38] = systemic / in life observation / body weight / body weight gain
# [39] = systemic / in life observation / body weight / body weight gain + systemic / pathology gross / urinary bladder / stones + systemic / …
compound,measurement,setting,value
CO/C=C(/C(=O)OC)c1ccccc1Oc1cc(Oc2ccccc2C#N)ncn1 [Azoxystrobin],NEL,[1]; systemic / clinical chemistry / aspartate aminotransferase (ast/sgot) / aspartate aminotransferase (ast/sgot) + systemic / clinical …,117 mg/kg/day
same,LOAEL,[1]; [20],82.4 mg/kg/day
same,NOAEL,[1]; [20],18.2 mg/kg/day
same,LOAEL,[2]; [21],211 mg/kg/day
same,NOAEL,[2]; [21],20.4 mg/kg/day
same,LEL,[2]; [22],22.4 mg/kg/day
same,NEL,[2]; [22],< 22.4 mg/kg/day
same,LOAEL,[3]; [23],200 mg/kg/day
same,NEL,[3]; [23],3 mg/kg/day
same,NOAEL,[3]; [23],25 mg/kg/day
same,LEL,[3]; systemic / organ weight / liver / absolute + systemic / clinical chemistry / cholesterol / cholesterol + systemic / clinical chemistry / …,25 mg/kg/day
same,LOAEL,[4]; [24],250 mg/kg/day
same,NOAEL,[4]; [24],50 mg/kg/day
same,LEL,[4]; [25],10 mg/kg/day
same,NEL,[4]; [25],< 10 mg/kg/day
same,LOAEL,[5]; [26],272 mg/kg/day
same,LEL,[5]; [27],272 mg/kg/day
same,NEL,[5]; [27],37.5 mg/kg/day
same,NOAEL,[5]; [27],37.5 mg/kg/day
CC(=O)OC1CC(C)OC(C)O1 (configuration not stated) [Dimethoxane],LEL,[6]; [28],31 mg/kg/day
same,NEL,[6]; [28],< 31 mg/kg/day
same,LOAEL,[6]; [29],> 500 mg/kg/day
same,NOAEL,[6]; [29],≥ 500 mg/kg/day
same,LEL,[7]; [30],500 mg/kg/day
same,LOAEL,[7]; [30],500 mg/kg/day
same,NEL,[7]; [30],250 mg/kg/day
same,NOAEL,[7]; [30],250 mg/kg/day
same,LOAEL,"[7]; group: maternal, systemic / in life observation / body weight / body weight gain + systemic / in life observation / food consumption / food consumption",250 mg/kg/day
same,LEL,[7]; [31],250 mg/kg/day
same,NEL,[7]; [31],125 mg/kg/day
same,NOAEL,[7]; [31],125 mg/kg/day
same,LEL,[8],300 mg/kg/day
same,LOAEL,[8],300 mg/kg/day
same,NEL,[8],100 mg/kg/day
same,NOAEL,[8],100 mg/kg/day
same,LEL,[9]; systemic / pathology microscopic / stomach / acanthosis + systemic / pathology microscopic / stomach / hyperkeratosis + systemic / pathology…,125 mg/kg/day
same,LOAEL,[9]; [32],> 250 mg/kg/day
same,NOAEL,[9]; [32],≥ 250 mg/kg/day
same,LEL,[10],500 mg/kg/day
same,LOAEL,[10],500 mg/kg/day
same,NEL,[10],250 mg/kg/day
same,NOAEL,[10],250 mg/kg/day
same,LEL,[11],125 mg/kg/day
same,LOAEL,[11],250 mg/kg/day
same,NEL,[11],< 125 mg/kg/day
same,NOAEL,[11],125 mg/kg/day
same,LEL,[12],250 mg/kg/day
same,LOAEL,[12],250 mg/kg/day
same,NEL,[12],< 250 mg/kg/day
same,NOAEL,[12],< 250 mg/kg/day
same,LEL,[13]; [33],62 mg/kg/day
same,LOAEL,[13]; [33],250 mg/kg/day
same,NEL,[13]; [34],31 mg/kg/day
same,NOAEL,[13]; [34],125 mg/kg/day
Nc1nc(N)nc(N)n1 [Melamine],LEL,[14]; [35],75 mg/kg/day
same,LOAEL,[14]; [36],> 600 mg/kg/day
same,NEL,[14]; [36],37.5 mg/kg/day
same,NOAEL,[14]; [36],≥ 600 mg/kg/day
same,LOAEL,[15]; [37],> 900 mg/kg/day
same,NOAEL,[15]; [37],≥ 900 mg/kg/day
same,LEL,[15]; [35],300 mg/kg/day
same,NEL,[15]; [35],< 300 mg/kg/day
same,LEL,[16]; [38],900 mg/kg/day
same,NEL,[16]; [38],< 900 mg/kg/day
same,LOAEL,[16]; [39],> 2700 mg/kg/day
same,NOAEL,[16]; [39],≥ 2700 mg/kg/day
same,LEL,[17],875 mg/kg/day
same,LOAEL,[17],> 875 mg/kg/day
same,NEL,[17],500 mg/kg/day
same,NOAEL,[17],≥ 875 mg/kg/day
same,LEL,[18],338 mg/kg/day
same,LOAEL,[18],338 mg/kg/day
same,NEL,[18],< 338 mg/kg/day
same,NOAEL,[18],< 338 mg/kg/day
same,LEL,[19]; [26],112 mg/kg/day
same,NEL,[19]; [26],< 112 mg/kg/day
same,LOAEL,[19]; systemic / pathology microscopic / kidney / inflammation + systemic / pathology gross / urinary bladder / stones,225 mg/kg/day
